# Experimental data as given in patent US10966912B2, “Medicament” (SYMRISE AG, priority 2016, dated 2021).
# How the values were obtained:
# Assay type in all cases: cell-based
# [1] = system: Human epidermal melanoma cells A375; assay: Basal melanin formation in vitro; conditions: for melanin: basal
# [2] = system: Human epidermal melanoma cells A375; assay: Visible light induced hyperpigmentation in vitro; conditions: for Inhibition vs visible light induced / melanin: visible light 480 J/cm2, A375 cells; for melanin: treated 48 h before and after irradiation
# Method: Human epidermal melanoma cells A375 were cultured in 6-well plates. The cells were exposed to visible light (480 J/cm2) with Hydrosun 750 equipped with KG1 filter. 48 h prior to and past to the irradiation the cells were treated with test compounds in non-cytotoxic concentrations. Melanocytes were lysed in a solution of NaOH. Melanin was quantified by measurement of absorbance at 405 nm and calculation based on a melanin standard curve.
# [3] = system: ex vivo human skin explants; assay: Melanin formation after visible light irradiation on ex vivo human skin; conditions: visible light 480 J/cm2; for Inhibition vs Placebo: ex vivo human skin; for % of melanin: topical on skin explant phototype IV, Fontana-Masson stain, image analysis
# Method: The below formulations were applied on ex vivo human skin explants from abdominal surgery of a donor with phototype IV (Fitzpatrick scale). 48 h after the formulations were removed with a cotton pad. Skin explants were exposed to visible light (480 J/cm2) with Hydrosun 750 equipped with KG1 filter. Formulations were reapplied afterwards. 48 h later skin sections were prepared and melanin was stained by Fontana-Masson stain. Quantification of melanin was done by image analysis.
smiles,measurement,setting,value
NCCC(=O)N[C@@H](Cc1cnc[nH]1)C(=O)O [L-carnosine],effect on basal melanin formation,[1],no effect
same,melanin,[1]; 0.001% L-carnosine,0.6845 µg
same,melanin,[1]; 0.00316% L-carnosine,0.6186 µg
same,Inhibition vs visible light induced,[2]; 0.001% L-carnosine,110%
same,melanin,[2]; 0.001% L-carnosine,0.5601 µg
same,Inhibition vs visible light induced,[2]; 0.00316% L-carnosine,113%
same,melanin,[2]; 0.00316% L-carnosine,0.5478 µg
same,Inhibition vs visible light induced,[2]; 0.01% L-carnosine,81%
same,melanin,[2]; 0.01% L-carnosine,0.6594 µg
same,Inhibition vs visible light induced,[2]; 0.0316% L-carnosine,90%
same,melanin,[2]; 0.0316% L-carnosine,0.6296 µg
same,visible light induced hyperpigmentation,[2]; A375 cells,inhibits significantly
same,Inhibition vs Placebo,[3]; 0.05% L-carnosine (formulation C),91.1%
same,% of melanin,"[3]; 0.05% L-carnosine (formulation C, Table 3)",35.74 ± 2.6%
same,Inhibition vs Placebo,[3]; 0.2% L-carnosine (formulation B),92.2%
same,% of melanin,"[3]; 0.2% L-carnosine (formulation B, Table 3)",35.44 ± 2.3%
